Experimental data reported in patent publication US20240383882A1 (Ecstasy LLC, priority 2020, published 2024).

Tested on: male C57BL/6 mice
Assay: 55° C. warm-water tail-flick test (antinociception)
Assay type: in vivo
Conditions: Mus musculus; half maximal effective dose in mice; using one of: warm water tail-flick test, spared nerve injury, chronic constriction injury, or Complete Freund's adjuvant induced inflammatory pain (not stated which per compound); read-out: Biological Activity (ED50)
Summary of the method: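 Subcutaneous dosing, then tail immersion in 55° C water at 30–120 min; latency normalized as 100×(test−control)/(20−control), using a 20 s cutoff, after excluding mice not responding within 2 s at baseline. Values expressed as ED50 (mg/kg).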

Row | Structure (SMILES) | ED50 [mg/kg]
1 | COc1cccc(C(C)(C)N2CC[C@@](CCc3ccc(C#N)cc3)(C(=O)O)C2)c1 [Compound 143, (R)-3-(4-cyanophenethyl)-1-(2-(3-methoxyphenyl)propan-2-yl)pyrrolidine-3-carboxylic acid] | > 50
2 | Cc1cccc(C(C)(C)N2CC[C@](CO)(CCc3ccc(C#N)cc3)C2)n1 [Compound 144, (R)-4-(2-(3-(hydroxymethyl)-1-(2-(6-methylpyridin-2-yl)propan-2-yl)pyrrolidin-3-yl)ethyl) benzonitrile] | > 50
3 | Cc1cccc(C(C)(C)N2CC[C@@](CCc3ccc(C#N)cc3)(C(=O)O)C2)n1 [Compound 145, (R)-3-(4-cyanophenethyl)-1-(2-(6-methylpyridin-2-yl)propan-2-yl)pyrrolidine-3-carboxylic acid] | > 50
4 | CC(C)(c1ccccn1)N1CC[C@](CO)(CCc2ccc(F)c(F)c2)C1 [Compound 146, (R)-(3-(3,4-difluorophenethyl)-1-(2-(pyridin-2-yl)propan-2-yl)pyrrolidin-3-yl)methanol] | > 50
5 | CC(C)(c1ccccn1)N1CC[C@](CO)(CCc2ccc(C#N)s2)C1 [Compound 147, (R)-5-(2-(3-(hydroxymethyl)-1-(2-(pyridin-2-yl)propan-2-yl)pyrrolidin-3-yl)ethyl)thiophene-2-carbonitrile] | > 50
6 | COc1cccc(C(C)(C)N2CC[C@@](CCc3ccc(C#N)cc3)(C(N)=O)C2)c1 [Compound 148, (R)-3-(4-cyanophenethyl)-1-(2-(3-methoxyphenyl)propan-2-yl)pyrrolidine-3-carboxamide] | > 50
7 | Cc1cccc(C(C)(C)N2CC[C@@](CCc3ccc(C#N)cc3)(C(N)=O)C2)n1 [Compound 149, (R)-3-(4-cyanophenethyl)-1-(2-(6-methylpyridin-2-yl)propan-2-yl)pyrrolidine-3-carboxamide] | > 50
8 | CC(C)(c1ccccn1)N1CC[C@@](CCc2ccc(C#N)s2)(C(=O)C(F)(F)F)C1 [Compound 154, (R)-5-(2-(1-(2-(pyridin-2-yl)propan-2-yl)-3-(2,2,2-trifluoroacetyl)pyrrolidin-3-yl)ethyl)thiophene-2-carbonitrile] | > 50
9 | CNC(=O)[C@]1(CCc2ccc(C#N)cc2)CCN(C(C)(C)c2ccccn2)C1 [Compound 155, (R)-3-(4-cyanophenethyl)-N-methyl-1-(2-(pyridin-2-yl)propan-2-yl)pyrrolidine-3-carboxamide] | ≤ 30
10 | COc1cccc(C(C)(C)N2CC[C@](CO)(CCc3ccc(C#N)cc3)C2)n1 [Compound 157, (R)-4-(2-(3-(hydroxymethyl)-1-(2-(6-methoxypyridin-2-yl)propan-2-yl)pyrrolidin-3-yl)ethyl) benzonitrile] | ≤ 30
11 | COc1cccc(C(C)(C)N2CC[C@@](CCc3ccc(C#N)cc3)(C(=O)O)C2)n1 [Compound 158, (R)-3-(4-cyanophenethyl)-1-(2-(6-methoxypyridin-2-yl)propan-2-yl)pyrrolidine-3-carboxylic acid] | > 50
12 | COc1cccc(C(C)(C)N2CC[C@@](CCc3ccc(C#N)cc3)(C(N)=O)C2)n1 [Compound 159, (R)-3-(4-cyanophenethyl)-1-(2-(6-methoxypyridin-2-yl)propan-2-yl)pyrrolidine-3-carboxamide] | ≤ 30
13 | CC(C)(c1ccccn1)N1CC[C@@](CCc2ccc(C#N)s2)(C(O)(C(F)(F)F)C(F)(F)F)C1 [Compound 160, (R)-5-(2-(3-(1,1,1,3,3,3-hexafluoro-2-hydroxypropan-2-yl)-1-(2-(pyridin-2-yl)propan-2-yl)pyrrolidin-3-yl)ethyl)thiophene-2-carbonitrile] | > 50
14 | CCOC(C(F)(F)F)(C(F)(F)F)[C@]1(CCc2ccc(C#N)s2)CCN(C(C)(C)c2ccccn2)C1 [Compound 161, (R)-5-(2-(3-(2-ethoxy-1,1,1,3,3,3-hexafluoropropan-2-yl)-1-(2-(pyridin-2-yl)propan-2-yl)pyrrolidin-3-yl)ethyl)thiophene-2-carbonitrile] | > 50
15 | CC(C)(c1ccccn1)N1CC[C@@](CCc2ccc(C#N)cc2)(CS(C)(=O)=O)C1 [Compound 162, (R)-4-(2-(3-((methylsulfonyl)methyl)-1-(2-(pyridin-2-yl)propan-2-yl)pyrrolidin-3-yl)ethyl) benzonitrile] | > 50
16 | CC(C)(c1ccccn1)N1CC[C@@](CCc2ccc3nonc3c2)(COCc2ccccc2)C1 [Compound 163, (R)-5-(2-(3-((benzyloxy)methyl)-1-(2-(pyridin-2-yl)propan-2-yl)pyrrolidin-3-yl)ethyl)benzo[c] [1,2,5]oxadiazole] | > 50
17 | CC(C)(c1ccccn1)N1CC[C@@](CCc2ccc3ccoc3c2)(COCc2ccccc2)C1 [Compound 164, (R)-2-(2-(3-(2-(benzofuran-6-yl)ethyl)-3-((benzyloxy)methyl)pyrrolidin-1-yl)propan-2-yl)pyridine] | > 50

Row | Structure (SMILES) | ED50 [mg/kg]
18 | Cc1ccc(C(C)(C)N2CC[C@@](CCc3ccc(C#N)cc3)(C(O)(C(F)(F)F)C(F)(F)F)C2)cn1 [Compound 165, (R)-4-(2-(3-(1,1,1,3,3,3-hexafluoro-2-hydroxypropan-2-yl)-1-(2-(6-methylpyridin-3-yl)propan-2-yl)pyrrolidin-3-yl)ethyl) benzonitrile] | ≤ 30
19 | Cc1ccc(C(C)(C)N2CC[C@@](CCc3ccc(C#N)cc3)(C(=O)C(F)(F)F)C2)cn1 [Compound 166, (R)-4-(2-(1-(2-(6-methylpyridin-3-yl)propan-2-yl)-3-(2,2,2-trifluoroacetyl)pyrrolidin-3-yl)ethyl) benzonitrile] | ≤ 30
20 | CC(C)(c1ccccn1)N1CC[C@](CO)(CCc2ccc3nonc3c2)C1 [Compound 167, (R)-(3-(2-(benzo[c][1,2,5]oxadiazol-5-yl)ethyl)-1-(2-(pyridin-2-yl)propan-2-yl)pyrrolidin-3-yl)methanol] | ≤ 30
21 | CC(C)(c1ccccn1)N1CC[C@](CO)(CCc2ccc3ccoc3c2)C1 [Compound 168, (R)-(3-(2-(benzofuran-6-yl)ethyl)-1-(2-(pyridin-2-yl)propan-2-yl)pyrrolidin-3-yl)methanol] | ≤ 30
22 | CC(C)(c1ccccn1)N1CC[C@@](CCc2ccc3nonc3c2)(CS(C)(=O)=O)C1 [Compound 169, (R)-5-(2-(3-((methylsulfonyl)methyl)-1-(2-(pyridin-2-yl)propan-2-yl)pyrrolidin-3-yl)ethyl)benzo[c] [1,2,5]oxadiazole] | > 50
23 | CC(C)(c1ccccn1)N1CC[C@@](CCc2ccc3ccoc3c2)(C(N)=O)C1 [Compound 174, (R)-3-(2-(benzofuran-6-yl)ethyl)-1-(2-(pyridin-2-yl)propan-2-yl)pyrrolidine-3-carboxamide] | ≤ 30
24 | CC(C)(c1ccccn1)N1CC[C@](C#N)(CCc2ccc(F)c(F)c2)C1 [Compound 175, (R)-3-(3,4-difluorophenethyl)-1-(2-(pyridin-2-yl)propan-2-yl)pyrrolidine-3-carbonitrile] | > 50
25 | CC(C)(c1ccccn1)N1CC[C@](C#N)(CCc2ccc3nonc3c2)C1 [Compound 178, (R)-3-(2-(benzo[c][1,2,5]oxadiazol-5-yl)ethyl)-1-(2-(pyridin-2-yl)propan-2-yl)pyrrolidine-3-carbonitrile] | > 50
26 | CC(C)(c1ccccn1)N1CC[C@](C#N)(CCc2ccc(C#N)cc2)C1 [Compound 179, (R)-3-(4-cyanophenethyl)-1-(2-(pyridin-2-yl)propan-2-yl)pyrrolidine-3-carbonitrile] | > 50
27 | CC(C)(c1ccccn1)N1CC[C@](C#N)(CCc2ccc3ccoc3c2)C1 [Compound 180, (R)-3-(2-(benzofuran-6-yl)ethyl)-1-(2-(pyridin-2-yl)propan-2-yl)pyrrolidine-3-carbonitrile] | > 50
28 | CC(C)(c1ccccn1)N1CC[C@@](CCc2ccc3nonc3c2)(c2nn[nH]n2)C1 [Compound 181, (R)-5-(2-(1-(2-(pyridin-2-yl)propan-2-yl)-3-(2H-tetrazol-5-yl)pyrrolidin-3-yl)ethyl) benzo[c] [1,2,5]oxadiazole] | > 50
29 | CC(C)(c1ccccn1)N1CC[C@@](CCc2ccc(C#N)cc2)(c2nn[nH]n2)C1 [Compound 182, (R)-4-(2-(1-(2-(pyridin-2-yl)propan-2-yl)-3-(2H-tetrazol-5-yl)pyrrolidin-3-yl)ethyl) benzonitrile] | > 50
30 | CC(C)(c1ccccn1)N1CC[C@@](CCc2ccc3ccoc3c2)(c2nn[nH]n2)C1 [Compound 183, (R)-2-(2-(3-(2-(benzofuran-6-yl)ethyl)-3-(2H-tetrazol-5-yl)pyrrolidin-1-yl)propan-2-yl)pyridine] | > 50
31 | CC(C)(c1ccccn1)N1CC[C@](CO)(CCc2cnc3ccccc3n2)C1 [Compound 184, (R)-(1-(2-(pyridin-2-yl)propan-2-yl)-3-(2-(quinoxalin-2-yl)ethyl)pyrrolidin-3-yl)methanol] | > 50
32 | CC(C)(c1ccccn1)N1CC[C@@](/C=C/c2ccc(C#N)cc2)(c2nn[nH]n2)C1 [Compound 185, (S,E)-4-(2-(1-(2-(pyridin-2-yl)propan-2-yl)-3-(2H-tetrazol-5-yl)pyrrolidin-3-yl)vinyl) benzonitrile] | > 50
33 | CCOC(C(F)(F)F)(C(F)(F)F)[C@]1(/C=C/c2ccc3nonc3c2)CCN(C(C)(C)c2ccc(C)nc2)C1 [Compound 186, (S,E)-5-(2-(3-(2-ethoxy-1,1,1,3,3,3-hexafluoropropan-2-yl)-1-(2-(6-methylpyridin-3-yl)propan-2-yl)pyrrolidin-3-yl)vinyl)benzo[c] [1,2,5]oxadiazole] | ≤ 30
34 | CCOC(C(F)(F)F)(C(F)(F)F)[C@]1(/C=C/c2cnc3ccccc3n2)CCN(C(C)(C)c2ccc(C)nc2)C1 [Compound 187, (S,E)-2-(2-(3-(2-ethoxy-1,1,1,3,3,3-hexafluoropropan-2-yl)-1-(2-(6-methylpyridin-3-yl)propan-2-yl)pyrrolidin-3-yl)vinyl)quinoxaline] | > 50
